In paper PMC12298827, “Subchronic Toxicities of Four Per- and Polyfluoroalkyl Substances (PFASs) by Oral Exposure in Sprague–Dawley Rats” (Toxics, 2025):
Marks after values point to notes of the source that are not given here.

System: male and female Sprague–Dawley rats
Assay: 90-day subchronic oral gavage toxicity study
Format: in vivo, rat
Protocol: Subchronic (90-day) studies were performed in accordance with current U.S. EPA’s Toxic Substances Control Act Good Laboratory Practice (GLP) Standards, with the following two general exceptions to the GLP guidelines: Analysis of the dose formulations was conducted according to RTI-approved Standard Operating Procedures, and corn oil (the vehicle) was not characterized (certificate of analysis from the vendor is available in the appendices to the final reports). Male and female Sprague–Dawley rats (five dose levels plus a control, n = 10/sex/dose group, corn oil vehicle dose volume of 3 mL/kg; oral gavage) were used in these studies, and the rats were euthanized on SD 91. The dose levels for PFHI were 0, 12.5, 25, 50, 100, and 200 mg/kg-day. The dose levels for MHFPK were 0, 18.8, 37.5, 75, 150, and 300 mg/kg-day. The dose levels for PFNAC were 0, 0.1, 0.3, 1.0, 3.0, and 10 mg/kg-day for male rats and 0, 0.3, 1.0, 3.0, 10, and 30 mg/kg-day for female rats. For CTFPA, the dose levels were 0, 1.9, 3.8. 7.5, 15, and 30 mg/kg-day for male rats and 0, 6.3, 12.5, 25, 50, and 100 mg/kg-day for female rats. For each PFAS, three batches of dosing solution were prepared. The time between the batch preparation of the dosing solutions ranged between 29 and 39 days. Blood samples were collected from all the rats at termination for serum chemistry, hematology, coagulation, and the analysis of the parent PFAS chemical in the plasma. In vivo data collection and further detail on the endpoints examined postmortem are described below.
The rats were observed twice daily for morbidity and mortality throughout the study period. At least once prior to randomization to test groups and weekly thereafter, the rats were physically examined, and bodyweights were obtained. Feed consumption was quantified weekly starting on SD 1.
Neurotoxicity was evaluated using the functional observational battery (FOB) and measuring locomotor activity (LMA) 2–4 h post dosing on SDs 78–80 and 80–84, respectively. For both the 14- and 90-day studies, an ophthalmologic examination was conducted prior to randomization and near the end of the study, using indirect ophthalmoscopy and slit–lamp biomicroscopy (as needed) after the administration of a mydriatic solution.
Hematology, biochemistry, and coagulation endpoints were measured at the termination of the study. A Siemens Advia 2120i hematology analyzer (Siemens Healthineers, Erlangen, Germany) was used to measure (or calculate) the parameters related to the complete blood count, leukocyte differential count, and reticulocyte count. The hematology parameters are listed and described in Table 2. The prothrombin time […] and activated partial thromboplastin time (APTT) were measured using an Instrumentation Laboratory (Bedford, MA, USA) ACL Elite Pro coagulation analyzer (laser–nephelometric centrifugal method).
At necropsy, the rats were visually examined for external abnormalities and organ weights (absolute and relative to the BW and brain weight), which were recorded (paired organs weighed together). The tissues were preserved in 10% neutral buffered formalin (NBF), except for the ocular tissues, testes, and epididymides, which were preserved in modified Davidson’s fixative and later transferred to 10% NBF. Bone marrow smears were prepared from the femurs, and the slides were air-dried, fixed in methanol, stained, and stored at room temperature for possible future evaluation. The preserved tissues were embedded in paraffin, sectioned, stained with hematoxylin and eosin, and examined by a board-certified veterinary pathologist.
Statistical analysis was performed using Provantis™ Version 10 or greater (Instem LSS, Limited; Stone, Staffordshire, UK). Differences among the treatment groups compared to the control were evaluated using one-way analysis of variance (ANOVA) if the underlying assumptions of a normal distribution (Shapiro–Wilk test) and the homogeneity of the variance (Levene’s test) were satisfied. […]

C=CC(=O)OCC(F)(F)C(F)(F)C(F)(F)C(F)(F)C(F)(F)C(F)(F)C(F)(F)C(F)F [PFNAC, 1H,1H,9H-Perfluorononyl acrylate]
Bodyweight (BW) and bodyweight gain (90-day, both sexes, all doses): None in females; effects in males at 10 mg/kg-day were not considered adverse because they did not persist through the study (days 8–29) | Clinical observations (90-day, both sexes, all doses): None | Coagulation endpoints (90-day, both sexes, all doses): Males at ≥1 mg/kg-day, mildly shortened APTT, not considered as biologically significant | Feed consumption (90-day, both sexes, all doses): Increased in males and females in some dose groups during some time periods, not considered as adverse (not persistent or consistent although sometimes statistically significant) | Functional observational battery (90-day, both sexes, all doses): Some changes, all considered as incidental and non-adverse | Gross lesions (90-day, both sexes, all doses): None considered as PFNAC related | Hematology (90-day, both sexes, all doses): No changes in females; Males—minimal decreases in red cell mass (HGB, HCT, and RBC) at ≥0.1 mg/kg-day, minimal decreases in absolute reticulocytes at ≥1 mg/kg and from minimal to mild decreases in neutrophils and eosinophils at ≥0.1 mg/kg-day ^2 | Histopathology (90-day, both sexes, all doses): The kidney and liver ^4 of males at ≥0.3 mg/kg-day and females at 30 mg/kg-day; the thyroid gland in males | Locomotor activity (90-day, both sexes, all doses): No effects | Morbidity and mortality (90-day, both sexes, all doses): None | Ophthalmology (90-day, both sexes, all doses): No ocular lesions | Organ weight changes (90-day, both sexes, all doses): Mean absolute and/or relative organ weight increases in the liver and kidneys of males at ≥0.3 mg/kg-day and females at ≥3 mg/kg-day | BMD10, absolute kidney weight increase (female): 13.4 mg/kg-day | BMD10, absolute liver weight increase (female): 11.2 mg/kg-day | BMD10, relative kidney weight increase (female): 6.0 mg/kg-day | BMD10, relative liver weight increase (female): 12.8 mg/kg-day | BMDL, absolute kidney weight increase (female): 2.68 mg/kg-day | BMDL, absolute liver weight increase (female): 8.8 mg/kg-day | BMDL, relative kidney weight increase (female): 0.8 * mg/kg-day | BMDL, relative liver weight increase (female): 10.1 mg/kg-day | LOEL, absolute kidney weight increase (female): 10 mg/kg-day | LOEL, absolute liver weight increase (female): 30 mg/kg-day | LOEL, relative kidney weight increase (female): 3 mg/kg-day | LOEL, relative liver weight increase (female): 30 mg/kg-day | NOEL, absolute kidney weight increase (female): 3 mg/kg-day | NOEL, absolute liver weight increase (female): 10 mg/kg-day | NOEL, relative kidney weight increase (female): 1 mg/kg-day | NOEL, relative liver weight increase (female): 10 mg/kg-day | A/G (female, 0.1 mg/kg-day): 1.11±0.08 ratio | ALB (female, 0.1 mg/kg-day): 4.36 ± 0.22 g/dL | ALPi (female, 0.1 mg/kg-day): 78.0±24.1 U/L | BUN (female, 0.1 mg/kg-day): 15.7 ± 1.3 mg/dL | CHOL (female, 0.1 mg/kg-day): 102.1 ± 16.7 mg/dL | GLOB (female, 0.1 mg/kg-day): 3.93 ± 0.12 g/dL | GLUC (female, 0.1 mg/kg-day): 99.4 ± 11.9 mg/dL | % BW Gain (female, 0.3 mg/kg-day): 47.16% | % Diff, % BW Gain (female, 0.3 mg/kg-day): -3.35% | % Diff, Total BW change (female, 0.3 mg/kg-day): -2.86% | % Diff, Total Food Consumed (female, 0.3 mg/kg-day): 4.16% | A/G (female, 0.3 mg/kg-day): 1.10±0.06 ratio | ABEOS (female, 0.3 mg/kg-day): 0.089±0.035 K/µL | ABNEUT (female, 0.3 mg/kg-day): 1.725±1.311 K/µL | ABRETi (female, 0.3 mg/kg-day): 188.23±26.07 10^9/L | ALB (female, 0.3 mg/kg-day): 4.44 ± 0.33 g/dL | ALPi (female, 0.3 mg/kg-day): 54.8±10.4 U/L | APTT (female, 0.3 mg/kg-day): 21.25 s | BUN (female, 0.3 mg/kg-day): 16.8 ± 3.3 mg/dL | CHOL (female, 0.3 mg/kg-day): 99.7 ± 15.0 mg/dL | GLOB (female, 0.3 mg/kg-day): 4.05 ± 0.18 g/dL | GLUC (female, 0.3 mg/kg-day): 104.6 ± 13.0 mg/dL | HCT (female, 0.3 mg/kg-day): 41.35±1.64% | HGB (female, 0.3 mg/kg-day): 13.21 ± 0.43 g/dL | Kidney Weight (female, 0.3 mg/kg-day): 1.74 g | Kidney/Body Weight (female, 0.3 mg/kg-day): 0.59% | Kidney/Brain Weight (female, 0.3 mg/kg-day): 91.4% | Liver Weight (female, 0.3 mg/kg-day): 7.76 g | Liver/Body Weight (female, 0.3 mg/kg-day): 2.62% | Liver/Brain Weight (female, 0.3 mg/kg-day): 408% | MPV (female, 0.3 mg/kg-day): 7.62 ± 0.63 fL | PT (female, 0.3 mg/kg-day): 13.79 s | RBC (female, 0.3 mg/kg-day): 7.177±0.276 M/µL | Total BW change (female, 0.3 mg/kg-day): 98.25 g | Total Food Consumed (female, 0.3 mg/kg-day): 1466 g | % BW Gain (female, 1.0 mg/kg-day): 45.99% | % Diff, % BW Gain (female, 1.0 mg/kg-day): -5.73% | % Diff, Total BW change (female, 1.0 mg/kg-day): -6.27% | % Diff, Total Food Consumed (female, 1.0 mg/kg-day): 2.64% | A/G (female, 1.0 mg/kg-day): 1.13±0.06 ratio | ABEOS (female, 1.0 mg/kg-day): 0.086±0.028 K/µL | ABNEUT (female, 1.0 mg/kg-day): 1.468±0.616 K/µL | ABRETi (female, 1.0 mg/kg-day): 180.48±14.00 10^9/L | ALB (female, 1.0 mg/kg-day): 4.43 ± 0.26 g/dL | ALPi (female, 1.0 mg/kg-day): 52.1±13.7 U/L | APTT (female, 1.0 mg/kg-day): 20.13 s | BUN (female, 1.0 mg/kg-day): 13.9 ± 2.0 mg/dL | CHOL (female, 1.0 mg/kg-day): 94.3 ± 18.7 mg/dL | GLOB (female, 1.0 mg/kg-day): 3.94 ± 0.19 g/dL | GLUC (female, 1.0 mg/kg-day): 100.9 ± 12.7 mg/dL | HCT (female, 1.0 mg/kg-day): 41.13±1.98% | HGB (female, 1.0 mg/kg-day): 13.19 ± 0.73 g/dL
